Experimental data reported in patent publication EP4806892A1, “CEREBLON E3 UBIQUITIN LIGASE INHIBITOR” (GAN & LEE PHARMACEUTICALS CO., LTD., priority 2023, dated 2025).
Values belong to the compound of their own block, whether it stands above or below them.

Key:
Assay type in all cases: cell-based
[1] = target: T1, AR protein (Homo sapiens, UniProt P10275); experiment: AR protein degradation in VCaP cells (Western blot); conditions: 8h
T1 construct: AR-positive human prostate cancer cells VCaP (cell source: ATCC); host or cells: VCaP
T1 sequence (P10275 1-920): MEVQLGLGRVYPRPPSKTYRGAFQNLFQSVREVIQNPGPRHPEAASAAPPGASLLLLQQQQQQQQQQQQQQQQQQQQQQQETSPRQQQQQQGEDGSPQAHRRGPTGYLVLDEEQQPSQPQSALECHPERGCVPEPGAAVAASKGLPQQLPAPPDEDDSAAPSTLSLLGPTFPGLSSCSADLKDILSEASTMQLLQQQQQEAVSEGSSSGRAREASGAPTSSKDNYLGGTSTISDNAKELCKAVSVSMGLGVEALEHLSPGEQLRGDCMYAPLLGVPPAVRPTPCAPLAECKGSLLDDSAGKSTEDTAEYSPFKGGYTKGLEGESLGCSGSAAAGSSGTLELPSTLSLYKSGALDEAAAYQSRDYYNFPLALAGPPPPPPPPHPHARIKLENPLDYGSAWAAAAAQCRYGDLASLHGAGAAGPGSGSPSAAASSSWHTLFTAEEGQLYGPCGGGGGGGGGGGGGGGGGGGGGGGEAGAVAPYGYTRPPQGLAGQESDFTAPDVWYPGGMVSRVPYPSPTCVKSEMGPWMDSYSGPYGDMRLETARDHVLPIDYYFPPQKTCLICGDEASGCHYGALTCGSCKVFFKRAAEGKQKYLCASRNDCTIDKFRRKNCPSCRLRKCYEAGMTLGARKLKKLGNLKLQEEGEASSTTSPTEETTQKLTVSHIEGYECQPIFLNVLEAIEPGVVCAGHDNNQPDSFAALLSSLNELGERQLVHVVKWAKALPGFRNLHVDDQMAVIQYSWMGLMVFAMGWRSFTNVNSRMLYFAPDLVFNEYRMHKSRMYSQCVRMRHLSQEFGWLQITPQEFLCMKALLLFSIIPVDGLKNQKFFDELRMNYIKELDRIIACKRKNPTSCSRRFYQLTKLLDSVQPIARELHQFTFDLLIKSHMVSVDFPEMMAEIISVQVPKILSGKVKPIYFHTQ
Procedure: AR-positive human prostate cancer cells VCaP (cell source: ATCC) were cultured in DMEM (GiBco catalog number 11995-065) containing 10% FBS (Hyclone catalog number SH30406.05), and the cells were inoculated in a six-well microplate (Thermo catalog number 140675) at a density of 3 × 10^5 cells/well. After being cultured overnight in a carbon dioxide incubator (ESCO), the prepared compound of the present invention and the positive control sample ARV-766 (energy chemical) solution of different concentrations were added at a volume of 1 µL/well to make the final concentrations of the compound and the positive control sample reach 5nM and 0.5nM, respectively. At the same time, the corresponding solvent control was set and cultured for 8h. After 8h of culture, the culture medium was removed, and the cells were washed with PBS. RIPA lysis buffer containing 1% Protease Inhibitor Cocktail was added. After lysis and centrifugation, a total protein extract was obtained, and the protein concentration in the extract was detected by BCA method. Protein electrophoresis was performed using SDS-PAGE, and then the protein was transferred to a PVDF (Millipore Sigma catalog number PSRP010R5) membrane at a constant voltage of 100V for 60min. The PVDF membrane was placed in a 5% milk powder 1×TBST solution and blocked at room temperature for 1h. The primary antibody solution (Anti-Androgen receptor, Cell Signaling Technology catalog number: 5153S; 1:2000 dilution) was prepared and incubated at 4°C overnight. The primary antibody solution was discarded and the PVDF membrane was washed with 1×TBST for 5 minutes each time, three times. The secondary antibody solution (Thermo catalog number SA5-35571; 1:7500 dilution) was prepared and incubated at room temperature for 1 hour. The secondary antibody solution was discarded and the PVDF membrane was washed with 1×TBST for 5 minutes each time, three times. A dual-color infrared laser imaging system (Licor catalog number Odyssey CLX) was used for Western membrane imaging. The Image Studio software was used to analyze the grayscale of the bands. GAPDH protein bands were also detected for each sample as an internal reference. The AR protein degradation rate of the compound and the positive control sample was calculated based on the grayscale of the protein bands. Among them, "A" means degradation rate ≥ 50%, "B" means 50%> degradation rate ≥ 20%, "C" means 20% degradation rate ≥ 10%, and "D" means degradation rate less than 10%.

[2] = tested on: TNFα; experiment: LPS-induced TNFα secretion by PBMC (HTRF detection); conditions: Homo sapiens, hPBMC, 20 hours compound then LPS 200 ng/mL for 5 hours, read-out: IC50 (inhibition of LPS-induced TNFα)
Procedure: (§1) After thawing, cryopreserved hPBMC (FPB003F-C, Shanghai OriBiotech) cells were resuspended in RPMI 1640 medium (30-2001,ATCC) containing 10% inactivated FBS (10099141C, Gibco) and cultured overnight at 37°C and 5% CO2. The next day, hPBMC cells were seeded in a 96-well cell culture plate at a density of 2 × 10^5 cells/well/100 µL (2 × 10^6 cells/mL), and 100 µL of compound in dimethyl sulfoxide solution (final concentration 0.0064-2500 nM) was added. […] The cell plate was placed in a 37°C, 5% CO2 incubator for 5 hours, and then centrifuged at 1000 rpm for 15 minutes. 100 µL of cell supernatant was collected from each well for cytokine concentration testing, which was tested immediately or frozen at -80°C for testing.
The TNFα concentration in the supernatant of LPS-induced THP-1 cells was determined using the TNF […] detection kit (62[…], PerkinElmer).
TNFα standard solutions of varying concentrations were prepared according to the product instructions, ranging from 0 to 2500 pg/mL. Equal volumes of Eu Cryptate antibody (1×) and d2 antibody (1×) were used to prepare the antibody mixture. 16 µL of standard solution or sample supernatant and 4 µL of the antibody mixture were added to each well of a 384-well white plate. The mixture was centrifuged at 800 rpm for 1 minute and incubated at room temperature for 2 hours. The absorbance at 620 nm and […] was read using a microplate reader (SPARK m1000pro, TECAN). A standard curve was plotted using the signal values of each TNFα standard solution. The TNFα concentration in each sample was determined based on the corresponding concentration of the signal value on the standard curve. The inhibitory rate of the compound on LPS-induced TNFα expression in THP-1 cell supernatants at different drug concentrations was calculated based on the TNFα concentration. The inhibition rate data were plotted in GraphPad Prism 8.0 software, and the IC50 value was calculated. Inhibition Rate = [1−(OD(Sample)−OD(Blank))/(OD(Control)−OD(Blank))] × 100% [formula] Table 9: Degradation effect of example compounds on IRAK4 in PBMC cells

[3] = tested on: IL-6; experiment: LPS-induced IL-6 secretion by hPBMC (ELISA); conditions: Homo sapiens, 20 h compound then LPS 200 ng/mL for 5 h; for inhibition at […]: 2500nM, read-out: Inhibition Rate of IL-6 (2500nM)
Procedure: as §1, with “OriBiotech.)” for “OriBiotech)”, “(30-2001, ATCC)” for “(30-2001,ATCC)”, “h,” for “hours,”, “min.” for “minutes.”, “awhich” for “which”
The IL-6 concentration in the supernatant of hPBMC cells induced by LPS was determined using a Human IL-6 ELISA kit (D6050, RD).
IL-6 standard solutions of varying concentrations were prepared according to the product instructions, ranging from 0 to 300 pg/mL. 100 µL of Assay Diluent RD1W and 100 µL of standard solution or sample supernatant were added to a pre-coated ELISA plate and incubated at room temperature for 2 hours. After washing the plate four times with 1× wash buffer, then 200 µL of Human IL-6 Conjugate was added and incubated at room temperature for 2 hours. After washing the plate four times with 1× wash buffer, then 200 µL of Substrate Solution was added and incubated at room temperature for 20 minutes. Finally, 50 µL of Stop Solution was added to terminate the reaction. The absorbance at 450 nm and 570 nm were read using a microplate reader (SPARK m1000pro, TECAN). The standard curve was plottd by the signal value of each concentration of IL-6 standard solution, and the IL-6 concentration in each sample was determined according to the corresponding concentration of the signal value of each well on the standard curve. The inhibition rate of the compound on LPS-induced IL-6 in the hPBMC cell supernatant at different drug concentrations was calculated according to the IL-6 concentration. The inhibition rate data were plotted in GraphPad Prism 8.0 software to calculate the IC50 value. Inhibition Rate = [1−(OD(sample)−OD(blank))/(OD(control)−OD(blank))] × 100% [formula] Table 10: Inhibitory effect of Example compounds on LPS-induced IL-6 secretion by hPBMC

SMILES: C[C@H]1CC2(CCN(c3ccc(C(=O)N4CCC(F)(CN5CCC6(CC5)COc5cc(N7CCC(=O)NC7=O)ccc56)CC4)cc3)CC2)CN1c1ccc(C#N)c(Cl)c1 [A-P-265, (S)-2-chloro-4-(8-(4-(4-((6-(2,4-dioxotetrahydropyrimidin-1(2H)-yl)-2H-spiro[benzofuran-3,4'-piperidine]-1'-yl)methyl)-4-fluoropiperidine-1-carbonyl)phenyl)-3-methyl-2,8-diazaspiro[4.5]dec-2-yl)benzonitrile]
Degradation rate of AR protein in VCAP cells ([1]; 0.5 nM): B (50%> degradation rate ≥ 20%)
Degradation rate of AR protein in VCAP cells ([1]; 5 nM): A (degradation rate ≥ 50%)

IC50 [2]: 95.6 nM
SMILES: O=C1CCN(c2ccc3c(c2)CC2(CO3)CN(CC3CCN(C(=O)C4CCC(n5cc(NC(=O)c6cnn7ccc(N8CC9CC8CO9)nc67)c(C(F)F)n5)CC4)CC3)C2)C(=O)N1 (centres unmarked) [IR-P-6]
inhibition at […] [3]: 65%

SMILES: O=C1CCN(c2ccc3c(c2)CC2(CCN(CC4CCN(C(=O)C5CCC(n6cc(NC(=O)c7cnn8ccc(N9CC%10CC9CO%10)nc78)c(C(F)F)n6)CC5)CC4)CC2)O3)C(=O)N1 (centres unmarked) [IR-P-7]
inhibition at […] [3]: 46%

SMILES: Cn1c(=O)n(C2CCC(=O)NC2=O)c2cccc(C#CCOC3CCN(C[C@H]4CC[C@H](n5cc(NC(=O)c6cnn7ccc(N8C[C@H]9C[C@@H]8CO9)nc67)c(C(F)F)n5)CC4)CC3)c21 (some centres unmarked) [KT-474, reference compound]
IC50 [2]: 52.3 nM
inhibition at 0.02 µM ([3]; 20nM, read-out: Inhibition Rate of IL-6 (20nM)): 63%
inhibition at […] [3]: 85%
